The source of these data is patent US9617225B2 (VIROSTATICS SRL, priority 2012, dated 2017).

For data set [1], the system named is Primary T cells. The data set is described as follows: Antiproliferative Activity (AP), mitotic index by flow cytometry. The data set is classed as cell-based. The following applies: T-cell, read-out: AP50 (μM). The method, then: Antiproliferative Activity (AP)
Primary T cells are cultured and exposed to different concentrations of the test compounds. Cell proliferation is analysed by measuring mitotic index (ie the number of cell divisions a population of cells undergoes) through flow cytometry based techniques. Mitotic index is expressed as percentage of untreated control. Inhibition of cell proliferation (AP) is then calculated (AP=100 minus % mitotic index compared to control, AP of control=0%). Inhibitory concentration 50% for antiproliferative capacity (AP50) is calculated.

Data set [2] has as its system laboratory strain of HIV-1. The data set is described as follows: Antiviral Activity Against HIV (AV), p24 in infected activated primary T cells. It is filed as cell-based. The following applies: for antiviral and antiproliferative activity and cytotoxicity profile: summary in words. On the procedure: Antiviral Activity Against HIV (AV)
Activated primary T cells are infected with a laboratory strain of HIV-1, then cultured and exposed to different concentrations of the test compounds. HIV replication is analysed by measuring the viral protein p24 and expressed as percentage of untreated control. Inhibition of viral replication (AV) is then calculated (AV=100 minus the % p24 compared to control, AV of control=0%). Inhibitory concentration 50% for antiviral activity (AV50) is calculated.

The target of data set [3] is human CDK9/CyclinT kinase complex (Homo sapiens (Human), UniProt P50750). The data set is described as follows: In Vitro CDK9/CyclinT Assay (IMAP fluorescent polarization). It is filed as biochemical. In a few lines:
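Phosphorylation of 400 nM TAMRA-Rbtide (15-mer retinoblastoma-derived peptide) by 5 nM CDK9/CyclinT with 12 μM ATP (=Kmapp) in 20 mM MOPS pH 7, 1 mM DTT, 10 mM MgCl2, 0.01% Tween 20. Reaction run 1 hour at room temperature, stopped with IMAP beads; read by fluorescence polarization.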

Data set [4] has as its system Primary T cells. In words: Cytotoxicity, viability by flow cytometry. It is filed as cell-based. The method, then: Primary T cells are cultured and treated with different concentrations of the test compound. Viability is analysed by measuring through flow cytometry based techniques the percentage of viable cells, compared to untreated control=100%).
A general note: Flow cytometry measures light scatter and fluorescence of single cells or particles in a stream.

Read-outs that look alike come from different tables or passages of the source. A value given as a limit tells only on which side of the number the result lay.

human CDK9/CyclinT kinase complex, sequence (P50750 whole entry): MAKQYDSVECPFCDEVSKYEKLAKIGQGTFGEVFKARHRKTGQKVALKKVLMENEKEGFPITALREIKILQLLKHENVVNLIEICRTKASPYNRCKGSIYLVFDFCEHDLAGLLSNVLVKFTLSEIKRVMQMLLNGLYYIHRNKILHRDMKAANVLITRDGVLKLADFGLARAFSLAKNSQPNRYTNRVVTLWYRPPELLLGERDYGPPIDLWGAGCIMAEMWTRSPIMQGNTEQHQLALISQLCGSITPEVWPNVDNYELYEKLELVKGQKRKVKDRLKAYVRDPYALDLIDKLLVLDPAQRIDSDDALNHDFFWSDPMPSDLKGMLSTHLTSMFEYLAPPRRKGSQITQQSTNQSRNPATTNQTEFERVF
human CDK9/CyclinT kinase complex, sequence (O60563 whole entry partner): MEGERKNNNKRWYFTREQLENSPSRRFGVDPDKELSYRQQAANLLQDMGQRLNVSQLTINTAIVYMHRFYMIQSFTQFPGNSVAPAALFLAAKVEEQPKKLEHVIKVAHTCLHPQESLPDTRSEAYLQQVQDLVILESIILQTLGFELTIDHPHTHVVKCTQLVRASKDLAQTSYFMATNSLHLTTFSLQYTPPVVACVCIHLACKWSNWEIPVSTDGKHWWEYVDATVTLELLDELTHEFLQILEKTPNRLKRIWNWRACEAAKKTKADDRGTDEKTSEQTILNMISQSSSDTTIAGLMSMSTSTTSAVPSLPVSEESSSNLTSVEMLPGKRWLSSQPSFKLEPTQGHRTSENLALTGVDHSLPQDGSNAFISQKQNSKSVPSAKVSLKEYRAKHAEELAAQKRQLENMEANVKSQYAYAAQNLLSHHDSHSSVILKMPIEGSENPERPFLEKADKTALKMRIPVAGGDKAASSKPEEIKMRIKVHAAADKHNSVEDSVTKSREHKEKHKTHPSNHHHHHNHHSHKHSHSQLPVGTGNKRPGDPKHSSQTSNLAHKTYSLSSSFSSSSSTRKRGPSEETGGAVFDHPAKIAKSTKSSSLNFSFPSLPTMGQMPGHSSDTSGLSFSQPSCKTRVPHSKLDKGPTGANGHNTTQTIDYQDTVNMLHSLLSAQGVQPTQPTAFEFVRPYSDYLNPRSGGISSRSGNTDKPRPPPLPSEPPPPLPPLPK

As to `CNCc1cc(Nc2cc(-c3ccccc3OC)ncn2)ccc1OC` [Example 37, N-(4-Methoxy-3-((methylamino)methyl)phenyl)-6-(2-methoxyphenyl)pyrimidin-4-amine], the IC50 in data set [1] is 2 µM; in data set [2] (Human immunodeficiency virus 1, T-cell, read-out: AV50 (μM)) it was > 1.5 µM; in data set [3] (Table 1), < 0.1 µM. Also, the “TD50” value in data set [4] was determined as 2 µM.
In the case of `COc1ccc(Nc2cc(-c3cc(F)c(F)cc3OC)ncn2)cc1N` [Example 83, N^1-[6-(4,5-Difluoro-2-methoxy-phenyl)-pyrimidin-4-yl]-4-methoxy-benzene-1,3-diamine], in data set [2], the “antiviral and antiproliferative activity and cytotoxicity profile” value is “good antiviral and antiproliferative activity and a good cytotoxicity profile”. In data set [3] (Table 1), the IC50 is < 1 µM. Further, the “TD50” value in data set [4] was found to be 12 µM.
`CCOc1ccc(Nc2cc(-c3ccccc3OC)ncn2)cc1C(N)=O` [Example 111, 2-Ethoxy-5-[6-(2-methoxy-phenyl)-pyrimidin-4-ylamino]-benzamide]: the “antiviral and antiproliferative activity and cytotoxicity profile” value in data set [2] is “good antiviral and antiproliferative activity and a good cytotoxicity profile”. Further, the IC50 in data set [3] (Table 1) is < 1 µM. The “TD50” value in data set [4] came to 12 µM.
Regarding `CCOc1ccc(Nc2cc(-c3ccc(F)cc3OC)ncn2)cc1C(N)=O` [Example 112, 2-Ethoxy-5-[6-(4-fluoro-2-methoxy-phenyl)-pyrimidin-4-ylamino]-benzamide], the “antiviral and antiproliferative activity and cytotoxicity profile” value in data set [2] was “good antiviral and antiproliferative activity and a good cytotoxicity profile”. In data set [3], the IC50 is < 1 µM. Moreover, the “TD50” value in data set [4] is 10 µM.
Turning to `COc1ccc(Nc2cc(-c3ccc(F)cc3OC)ncn2)cc1O` [Example 123, 5-[6-(4-Fluoro-2-methoxy-phenyl)-pyrimidin-4-ylamino]-2-methoxy-phenol], the “antiviral and antiproliferative activity and cytotoxicity profile” value in data set [2] was “good antiviral and antiproliferative activity and a good cytotoxicity profile”. Besides, in data set [3] (Table 1), the IC50 was < 1 µM. The “TD50” value in data set [4] turned out to be 7 µM.
With `COc1ccc(Nc2cc(-c3cc(F)ccc3OC)ncn2)cc1C(N)=O` [Example 127, 5-[6-(5-Fluoro-2-methoxy-phenyl)-pyrimidin-4-ylamino]-2-methoxy-benzamide], the “antiviral and antiproliferative activity and cytotoxicity profile” value in data set [2] was “good antiviral and antiproliferative activity and a good cytotoxicity profile”. The IC50 in data set [3] is < 1 µM. The “TD50” value in data set [4] is 7 µM.
Take `COc1ccc(Nc2cc(-c3ccc(F)cc3OC)ncn2)cc1C(N)=O` [Example 128, 5-[6-(4-Fluoro-2-methoxy-phenyl)-pyrimidin-4-ylamino]-2-methoxy-benzamide]: the “antiviral and antiproliferative activity and cytotoxicity profile” value in data set [2] is “good antiviral and antiproliferative activity and a good cytotoxicity profile”. Moreover, the IC50 in data set [3] (Table 1) was < 1 µM. Also, in data set [4], the “TD50” value was 5 µM.
Turning to `CCOc1ccccc1-c1cc(Nc2ccc(OC)c(C(N)=O)c2)ncn1` [Example 129, 5-[6-(2-Ethoxy-phenyl)-pyrimidin-4-ylamino]-2-methoxy-benzamide], the “antiviral and antiproliferative activity and cytotoxicity profile” value in data set [2] is “good antiviral and antiproliferative activity and a good cytotoxicity profile”. Also, the IC50 in data set [3] is < 0.1 µM. Besides, the “TD50” value in data set [4] worked out at 5 µM.
As to `CCOc1cc(F)ccc1-c1cc(Nc2ccc(OC)c(C(N)=O)c2)ncn1` [Example 130, 5-[6-(2-Ethoxy-4-fluoro-phenyl)-pyrimidin-4-ylamino]-2-methoxy-benzamide], in data set [2], the “antiviral and antiproliferative activity and cytotoxicity profile” value is “good antiviral and antiproliferative activity and a good cytotoxicity profile”. The IC50 in data set [3] is < 0.1 µM. In data set [4], the “TD50” value was 15 µM.
As to `CCOc1ccc(F)cc1-c1cc(Nc2ccc(OC)c(C(N)=O)c2)ncn1` [Example 131, 5-[6-(2-Ethoxy-5-fluoro-phenyl)-pyrimidin-4-ylamino]-2-methoxy-benzamide], the “antiviral and antiproliferative activity and cytotoxicity profile” value in data set [2] is “good antiviral and antiproliferative activity and a good cytotoxicity profile”. In data set [3] (Table 1), the IC50 is < 1 µM. Further, in data set [4], the “TD50” value stood at 2 µM.
For the molecule `CNC(=O)c1ccc(Nc2cc(-c3ccccc3OC)ncn2)cc1OC` [Example 134, 2-Methoxy-4-[6-(2-methoxy-phenyl)-pyrimidin-4-ylamino]-N-methyl-benzamide], the IC50 in data set [2] (read-out: AV50, Table 5) was > 10 µM; in data set [3] (Table 1) it was < 1 µM; in data set [3] (Table 5) it was < 1 µM. The “TD50” value in data set [4] was >10 µM.
On to `COc1cc(Nc2cc(-c3ccccc3OC)ncn2)ccc1C(N)=O` [Example 136, 2-Methoxy-4-[6-(2-methoxy-phenyl)-pyrimidin-4-ylamino]-benzamide], for which the IC50 in data set [2] (read-out: AV50, Table 5) is > 2 µM; in data set [3] (Table 1), < 1 µM; in data set [3] (Table 5) it was < 1 µM. Besides, the “TD50” value in data set [4] was >2 µM.
With `CCOc1ccccc1-c1cc(Nc2cc(F)c(OC)c(C(N)=O)c2)ncn1` [Example 141, 5-[6-(2-Ethoxy-phenyl)-pyrimidin-4-ylamino]-3-fluoro-2-methoxy-benzamide], the “antiviral and antiproliferative activity and cytotoxicity profile” value in data set [2] is “good antiviral and antiproliferative activity and a good cytotoxicity profile”. Besides, the IC50 in data set [3] (Table 1) is < 1 µM. Besides, the “TD50” value in data set [4] was >20 µM.
With `CCOc1ccc(F)cc1-c1cc(Nc2cc(F)c(OC)c(C(N)=O)c2)ncn1` [Example 142, 5-[6-(2-Ethoxy-5-fluoro-phenyl)-pyrimidin-4-ylamino]-3-fluoro-2-methoxy-benzamide], in data set [2], the “antiviral and antiproliferative activity and cytotoxicity profile” value was “good antiviral and antiproliferative activity and a good cytotoxicity profile”. Further, in data set [3], the IC50 was < 1 µM. In addition, the “TD50” value in data set [4] is >20 µM.
Turning to `COc1cc(F)c(Nc2cc(-c3ccccc3OC)ncn2)cc1C(N)=O` [Example 143, 4-Fluoro-2-methoxy-5-[6-(2-methoxy-phenyl)-pyrimidin-4-ylamino]-benzamide], the “antiviral and antiproliferative activity and cytotoxicity profile” value in data set [2] was “good antiviral and antiproliferative activity and a good cytotoxicity profile”. Also, the IC50 in data set [3] is < 1 µM. In data set [4], the “TD50” value came out at 15 µM.
For the molecule `COc1cc(F)c(Nc2cc(-c3cc(F)ccc3OC)ncn2)cc1C(N)=O` [Example 144, 4-Fluoro-5-[6-(5-fluoro-2-methoxy-phenyl)-pyrimidin-4-ylamino]-2-methoxy-benzamide], the “antiviral and antiproliferative activity and cytotoxicity profile” value in data set [2] was “good antiviral and antiproliferative activity and a good cytotoxicity profile”. Further, the IC50 in data set [3] was < 1 µM. Moreover, in data set [4], the “TD50” value was 12 µM.
Turning to `CCOc1ccccc1-c1cc(Nc2cc(C(N)=O)c(OC)cc2F)ncn1` [Example 145, 5-[6-(2-Ethoxy-phenyl)-pyrimidin-4-ylamino]-4-fluoro-2-methoxy-benzamide], the “antiviral and antiproliferative activity and cytotoxicity profile” value in data set [2] is “good antiviral and antiproliferative activity and a good cytotoxicity profile”. Further, the IC50 in data set [3] was < 1 µM. For the same molecule, in data set [4], the “TD50” value was determined as 15 µM.
On to `COc1cc(F)c(Nc2cc(-c3ccc(F)cc3OC)ncn2)cc1C(N)=O` [Example 146, 4-Fluoro-5-[6-(4-fluoro-2-methoxy-phenyl)-pyrimidin-4-ylamino]-2-methoxy-benzamide], for which the “antiviral and antiproliferative activity and cytotoxicity profile” value in data set [2] was “good antiviral and antiproliferative activity and a good cytotoxicity profile”. Also, the IC50 in data set [3] (Table 1) is < 1 µM. Also, the “TD50” value in data set [4] turned out to be 10 µM.
As for `CCOc1cc(F)ccc1-c1cc(Nc2cc(C(N)=O)c(OC)cc2F)ncn1` [Example 147, 5-[6-(2-Ethoxy-4-fluoro-phenyl)-pyrimidin-4-ylamino]-4-fluoro-2-methoxy-benzamide], in data set [2], the “antiviral and antiproliferative activity and cytotoxicity profile” value is “good antiviral and antiproliferative activity and a good cytotoxicity profile”. Further, the IC50 in data set [3] is < 1 µM. In data set [4], the “TD50” value stood at 15 µM.
